Measured values: patent US6413967B1, “Inhibition of novel calcium entry pathway in electrically non-excitable cells acting as an anti-proliferative therapy” (The University of Virginia Patents Foundation, priority 1995, dated 2002)

How the values were obtained:
[1] = tested on: Ca^2+ entry pathway in Jurkat cells; conditions: previously demonstrated (Haverstick et al 1993); cited from earlier work
[2] = tested on: NVG current in Jurkat cells; test: perforated patch clamp, non-voltage gated (NVG) current; assay type: cell-based, human; conditions: membrane potential −60 mV, 300 nM thapsigargin, amiloride 100 μM, MnCl2 300 μM, NiCl2 1 mM, W-7 30 μM, NDGA 10 μM
Method: (§1) All recordings were performed using the perforated patch method (Horn et al, J. Gen. Physiol. (1988) 92:145) of the gigaseal patch clamp technique (Hammil et al, Pflugers Arch (1981) 391:85) with microelectrodes of 5-10 megohm series resistance. In all solutions for voltage clamp, K^+ was replaced with Cs^+ to block outward K^+ currents (Fox et al, J. Physiol. (Lond.) (1987) 392:149). The bath solution contained (in mM): NaCl, 155; CsCl, 4.5; CaCl2, 2; MgCl2, 1; D-glucose, 5; HEPES, 10 (pH 7.4 with NaOH). The pipette solution contained (in mM): CsCl, 55; Cesium methanesulfonate, 70; CaCl2, 1; MgCl2, 7; HEPES, 10 (pH 7.3 with NaOH). Nystatin was made as a stock solution of 6 mg/100 μl DMSO, and 2 μl of the stock was added to 1 ml of the pipette solution for use. Both pipette and bath solutions were 290-300 mOsm. Experiments were performed on cells at room temperature using the Axopatch-1D patch clamp (Axon Instruments, Foster City, Calif.) after correction of junction potentials and leak subtraction. Records were low-pass filtered at 500 Hz, and the data were collected, stored and analyzed using the pClamp software program (Axon Instruments). For the non-voltage gated current traces, data is presented either as the tracing from a chart recorder or from the digital data in which the current was measured at 5 second intervals and plotted as individual points.

[3] = tested on: VG Ca^2+ current in Jurkat cells; test: perforated patch clamp, voltage gated (VG) Ca2+ current; assay type: cell-based, human; conditions: for effect on the VG Ca^2+ current: amiloride 100 μM, MnCl2 300 μM, NiCl2 1 mM, W-7 alone (unstimulated current)
Method: as §1

[4] = tested on: Jurkat T cells; test: Jurkat cell proliferation, tetrazolium dye; assay type: cell-based, human; conditions: Homo sapiens, Jurkat; incubation 44 to 48 h; read-out: JURKAT prolif IC50
Method: (§2) The effect of various drugs on the proliferation of Jurkat T cells, MDA-468 human breast cancer cells and PC3 human prostate cancer cells was determined by incubating the cells with the indicated concentrations of drug for 48 hours. The number of viable cells remaining at the end of the incubation period was evaluated using the procedure outlined in Example 4.
(§3) Cells are plated in triplicate in a 96-well flat-bottomed plate (Jurkat: 5e4 cells/well in RPMI-1640 plus 5% fbs; MDA468: 2.5e4 per well in DMEM plus 5% fbs and 11 μg/ml insulin) in the absence (control) or presence of drug at 3, 10, 30, and 100 μM. An additional control of 100 μM drug in RPMI-1640 plus 5% fbs or DMEM plus 5% fbs and 11 μg/Ml insulin with no cells is included with each run to control for possible drug interactions with the dye. The plate is then placed in a 5% CO2 37° C. incubator for 44 to 48 hours. 20 μl of dye solution containing a tetrazolium dye (3-(4,5-dimethylthiazol-2-yl)-5-(3-carboxymethoxyphenyl)-2-(4-sulfophenyl)-2H-tetrazolium, Owen's reagent) plus coupling reagent (phenazine methosulfate) is added to each well, the plate is returned to the incubator, and the absorbance at 490 nm is read using an ELISA plate reader 3 to 4 h (Jurkat cells) or 2 to 3 h (MDA-468 cells) later. All data are presented as percent of control (no drug addition). With this protocol, it is possible to determine the effect of 5 drugs at 4 concentrations in a single 96-well plate as outlined below: […]

[5] = tested on: MDA-468 human breast cancer cells; test: MDA-468 cell proliferation, tetrazolium dye; assay type: cell-based; conditions: Homo sapiens; incubation 44 to 48 h; read-out: MDA-468 prolif IC50
Method: as §2, §3

[6] = tested on: [Ca^2+]i in Jurkat T cells; test: receptor-stimulated Ca2+ influx in Jurkat T cells (anti-CD3 mAb OKT3); assay type: cell-based, human; conditions: Homo sapiens, Jurkat; maximal [Ca^2+]i after anti-CD3 mAb OKT3; drug 1 min prior
Method: Initially, all drugs are screened using Jurkat T cells incubated with indo-1/AM as outlined below. In the event that there is an effect of the drug on the maximum [Ca^2+]i reached following treatment of the cells with the anti-CD3 mAb […], the drug is evaluated for any effects on the spectral characteristics of indo-1 as outlined in Haverstick and Gray, Mol. Biol. Cell (1993) 4:173. If there is an effect of the drug on the spectral characteristics of indo-1 , the drug is further examined for spectral effects on the combination of fura-red and fluo-3. If there is no effect of the drug on the fura-red/fluo-3 combination, the drug is examined for effects on the maximum [Ca^2+]i reached following OKT3 treatment of cells incubated with 5 μM fura-red and […] as outlined below.
Jurkat cells are incubated in RPMI-1640 plus 5% fbs in the presence of the acetoxymethyl ester of either indo-1 (1 μM) or the combination of fura-red (5 μM) with fluo-3 (1 μM) for one hour at 37° C. Cells are washed three times in buffer A [[…] 4-(2-hydroxyethyl)-1-piperazine ethanesulfonic acid (HEPES), pH 7.4, 3 MM KCl, 1 mM MgCl2, 1 mM CaCl2, 140 mM NaCl, 0.1% glucose] containing 1% fbs and suspended to a final concentration of 1×10^6/ml. Cells are then placed in the 37° C. jacketed cell holder of the SLM 8000C. Antigen receptor engagement is mimicked by the addition of the anti-CD3 monoclonal antibody OKT3 (Gray et al, J. Exp. Med. (1988) 167:1963; Gray et al, J. Immunol. 142:1631). The effect of drug added prior to receptor stimulation or at the plateau phase of Ca^2+ entry is determined as follows:
Prior drug: 10 or 30 μM drug @ 30 seconds, 1 μg/ml OKT3 at 90 seconds
Post drug: 1 μg/ml OKT3 at 30 second, 10 or 30 μM drug @ 120 seconds

[7] = tested on: [Ca^2+]i in MDA-468 cells; test: EGF receptor-stimulated Ca2+ influx in MDA-468 cells; assay type: cell-based; conditions: Homo sapiens; maximal [Ca^2+]i, Ca^2+ entry triggered by 50 ng/ml EGF
[8] = tested on: Ca^2+ entry pathway in Jurkat cells; test: thapsigargin-stimulated Ca2+ entry measured with Ca2+-sensitive dyes (indo-1, fluo-3); assay type: cell-based, human; conditions: 300 nM thapsigargin, amiloride 100 μM (fluo-3), Ni^2+ 1 mM, NDGA 10 μM (indo-1)
Method: Lymphocytes were suspended in culture medium at 37° C. for 1 h in the presence of 1 μM of the Ca^2+ indicator dye indo-1 /AM. Cells were washed twice in buffer A (140 mM NaCl, 3 mM KCl, 1 mM CaCl2, 1 mM MgCl2, 0.1% D-glucose, 1% FBS, 10 mM HEPES, pH 7.4) and were suspended at a final concentration of 1×10^6 cells/ml in buffer A. The excitation wavelength was 340 nm and emission was monitored at 398 nm in an SLM 8000 spectrofluorometer (SLM/Aminco, Urbana, Ill.), with the temperature maintained at 37° C. Data are plotted as relative fluorescence intensity at 398 nm as a measure of [Ca^2+]i. For FIG. 7, indo-1 emission was monitored at 398 nm and 480 nm and [Ca^2+]i was determined as described previously (Gray et al, J. Immunol (1987) 138:63; Haverstick et al, Mol. Biol. Cell (1993) 4:173).
Jurkat cells were loaded with indo-1/AM as described above. The excitation wavelength was 340 nm and emission was measured at 441 nm. The fluorescence of indo-1 at 441 nm is insensitive to changes in [Ca^2+]i (Sage et al, Biochem. J. (1989) 258:923) and is plotted as relative fluorescence intensity.
Because amiloride interferes with the fluorescence of indo-1 (Wacholtz et al, J. Immunol. (1992) 149:1912), fluo-3 was used to monitor [Ca^2+]i in the presence of amiloride. Jurkat cells were suspended in culture medium at 37° C. for 1 h in the presence of 1 μM fluo-3/AM and 1 mM probenecid to decrease dye leakage (DiVirgilio et al, Methods Cell Biol. (1989) 31:453). After two washes in buffer A, cells were suspended at a concentration of 1×10^6 cells/ml in buffer A with 1 mM probenecid and were maintained in a cuvette at 37° C. The excitation wavelength was 506 nm and the emission was monitored at 526 nm. Data are presented sa relative fluorescence intensity at 526 nm.

[9] = tested on: human prostate cancer cell line PC3; test: PC3 cell proliferation, tetrazolium dye; assay type: cell-based; conditions: PC-3, 5×10^4 PC3 cells, 48 hours

| IC50 [4] [µM] | IC50 [5] [µM] | IC50 [6] [µM] | IC50 [7] [µM] | IC50 [9] [µM] | Compound | effect on Ca^2+ influx induced by thapsigargin, by Ca^2+-sensitive dyes [1] | effect on the thapsigargin-induced NVG current [2] | effect on the VG Ca^2+ current [3] | effect on thapsigargin-mediated augmentation of the VG Ca^2+ current ([3]; drug added before 300 nM thapsigargin, W-7 30 μM) | effect on thapsigargin-stimulated Ca^2+ entry [8] | effect on the thapsigargin-induced NVG current ([2]; listed as Amiloride) |
| --- | --- | --- | --- | --- | --- | --- | --- | --- | --- | --- | --- |
| – | – | – | – | – | NCCCCCCNS(=O)(=O)c1cccc2c(Cl)cccc12 [W-7, N-(6-aminohexyl)-5-chloro-1-naphthalenesulfonamide] | eliminates | not affected | not affected | blocked the augmentation | – | – |
| 90 | 20 | 25 | 5 | – | CN(C)CCCN1c2ccccc2Sc2ccc(Cl)cc21 [chloropromazine, 2-chloro-10-[3-dimethylaminopropyl]-phenothiazine] | – | – | – | – | – | – |
| – | – | – | – | – | [Cl][Ni][Cl] [Ni^2+, NiCl2] | – | blocked | eliminated the VG Ca^2+ current | – | blocked Ca^2+ entry | – |
| – | – | – | – | – | N=C(N)NC(=O)c1nc(Cl)c(N)nc1N [amiloride] | – | virtually eliminated | not blocked | – | no effect | completely inhibited |
| 3.5 | 30 | 65 | 105 | ~40 | CC(CN1c2ccccc2Sc2ccccc21)N(C)C (stereo not drawn) [promethazine, N,N,α-trimethyl-10H -phenothiazine-10-ethanamine] | – | – | – | – | – | – |
